Laboratory results published in ChEMBL document CHEMBL5058649, “Data for DCP probe BAY 1816032” (2022).

How the values were obtained:
[1] = biological target: Histamine H2 receptor (Homo sapiens) (UniProt P25021); settings: Compound concentration 10.0 uM
[2] = biological target: T1, 5-hydroxytryptamine receptor 1D (Homo sapiens, UniProt P28221); experiment: GPCRScan assay: inhibition of 5-HT1D; parameters: radioligand conc. used [nm] 1.0 – 2.0, parental cells HEKT
[3] = biological target: T2, Mitotic checkpoint serine/threonine-protein kinase BUB1 (Homo sapiens, UniProt O43683); experiment: BUB1 biochemical assay (high ATP)
T2 sequence (O43683 whole entry): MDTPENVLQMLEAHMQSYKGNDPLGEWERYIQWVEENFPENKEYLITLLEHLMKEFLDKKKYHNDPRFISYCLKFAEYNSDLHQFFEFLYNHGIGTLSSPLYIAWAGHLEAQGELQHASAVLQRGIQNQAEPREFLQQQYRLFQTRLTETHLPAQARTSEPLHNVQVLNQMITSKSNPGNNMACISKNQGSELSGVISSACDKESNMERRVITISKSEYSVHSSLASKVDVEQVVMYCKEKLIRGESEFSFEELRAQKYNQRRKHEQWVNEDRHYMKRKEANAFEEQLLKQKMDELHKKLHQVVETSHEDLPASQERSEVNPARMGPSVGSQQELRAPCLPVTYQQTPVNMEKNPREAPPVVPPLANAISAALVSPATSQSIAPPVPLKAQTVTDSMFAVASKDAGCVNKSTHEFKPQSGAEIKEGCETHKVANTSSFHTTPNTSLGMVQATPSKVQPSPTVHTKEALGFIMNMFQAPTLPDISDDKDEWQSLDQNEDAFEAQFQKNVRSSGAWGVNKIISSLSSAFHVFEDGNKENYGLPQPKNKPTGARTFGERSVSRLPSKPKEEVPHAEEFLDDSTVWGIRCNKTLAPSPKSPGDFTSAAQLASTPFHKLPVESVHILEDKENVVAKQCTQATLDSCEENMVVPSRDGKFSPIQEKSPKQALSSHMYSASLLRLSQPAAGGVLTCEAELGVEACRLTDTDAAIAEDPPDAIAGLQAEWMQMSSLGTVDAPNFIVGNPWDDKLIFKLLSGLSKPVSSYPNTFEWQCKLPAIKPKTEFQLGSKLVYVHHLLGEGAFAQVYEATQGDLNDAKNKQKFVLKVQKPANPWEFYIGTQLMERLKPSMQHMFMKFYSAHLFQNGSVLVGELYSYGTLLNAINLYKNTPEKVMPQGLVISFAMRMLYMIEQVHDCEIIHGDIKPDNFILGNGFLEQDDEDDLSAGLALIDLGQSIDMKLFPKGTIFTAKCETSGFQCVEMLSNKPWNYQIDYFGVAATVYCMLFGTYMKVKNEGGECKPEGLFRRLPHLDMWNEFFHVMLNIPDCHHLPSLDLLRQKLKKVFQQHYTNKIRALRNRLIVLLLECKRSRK

[4] = biological target: 5-hydroxytryptamine receptor 3A (Homo sapiens) (UniProt P46098); settings: Compound concentration 10.0 uM
[5] = biological target: 5-hydroxytryptamine receptor 1B (Homo sapiens) (UniProt P28222); settings: Compound concentration 10.0 uM
[6] = biological target: D(3) dopamine receptor (Homo sapiens) (UniProt P35462); settings: Compound concentration 10.0 uM
Chain of D(3) dopamine receptor (Homo sapiens) (P35462 whole entry): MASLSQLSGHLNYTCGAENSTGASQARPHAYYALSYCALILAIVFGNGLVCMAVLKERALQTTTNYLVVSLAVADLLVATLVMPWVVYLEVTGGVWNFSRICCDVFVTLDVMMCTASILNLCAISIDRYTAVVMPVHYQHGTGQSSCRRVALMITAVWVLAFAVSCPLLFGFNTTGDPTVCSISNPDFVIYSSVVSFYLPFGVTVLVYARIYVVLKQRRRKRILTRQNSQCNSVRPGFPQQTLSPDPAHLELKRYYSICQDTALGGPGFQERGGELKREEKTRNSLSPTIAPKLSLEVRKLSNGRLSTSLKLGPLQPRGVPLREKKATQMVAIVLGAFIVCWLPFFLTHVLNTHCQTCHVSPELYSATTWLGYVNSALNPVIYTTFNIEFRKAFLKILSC

[7] = biological target: 5-hydroxytryptamine receptor 7 (Homo sapiens, UniProt P34969); settings: Compound concentration 10.0 uM
[8] = biological target: 5-hydroxytryptamine receptor 1E (Homo sapiens) (UniProt P28566); settings: Compound concentration 10.0 uM
[9] = biological target: Alpha-1B adrenergic receptor (Homo sapiens) (UniProt P35368); settings: Compound concentration 10.0 uM
[10] = biological target: 5-hydroxytryptamine receptor 1A (Homo sapiens) (UniProt P08908); settings: Compound concentration 10.0 uM
[11] = biological target: T3, Sodium-dependent dopamine transporter (Homo sapiens, UniProt Q01959); experiment: GPCRScan assay: inhibition of DAT; parameters: radioligand conc. used [nm] 3.6 – 16.0, parental cells stable HEK
T3 sequence (Q01959 whole entry): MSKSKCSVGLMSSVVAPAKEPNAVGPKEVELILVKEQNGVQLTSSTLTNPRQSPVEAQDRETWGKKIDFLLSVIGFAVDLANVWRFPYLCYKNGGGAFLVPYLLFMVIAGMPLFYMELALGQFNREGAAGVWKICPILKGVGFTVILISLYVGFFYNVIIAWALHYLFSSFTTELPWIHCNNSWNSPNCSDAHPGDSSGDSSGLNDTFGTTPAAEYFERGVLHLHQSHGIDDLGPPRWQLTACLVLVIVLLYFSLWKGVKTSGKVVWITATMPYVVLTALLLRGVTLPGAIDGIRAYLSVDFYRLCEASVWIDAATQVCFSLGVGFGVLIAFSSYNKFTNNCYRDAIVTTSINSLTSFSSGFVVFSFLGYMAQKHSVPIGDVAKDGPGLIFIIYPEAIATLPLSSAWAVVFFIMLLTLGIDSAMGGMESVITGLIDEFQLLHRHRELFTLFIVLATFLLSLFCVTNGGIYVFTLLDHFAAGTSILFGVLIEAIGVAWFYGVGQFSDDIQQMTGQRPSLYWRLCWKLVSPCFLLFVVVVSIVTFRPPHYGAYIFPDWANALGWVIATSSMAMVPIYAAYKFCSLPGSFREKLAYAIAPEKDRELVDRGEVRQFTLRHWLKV

[12] = biological target: 5-hydroxytryptamine receptor 5A (Homo sapiens) (UniProt P47898); settings: Compound concentration 10.0 uM
[13] = biological target: Alpha-1D adrenergic receptor (Homo sapiens) (UniProt P25100); settings: Compound concentration 10.0 uM
[14] = biological target: D(1A) dopamine receptor (Homo sapiens) (UniProt P21728); settings: Compound concentration 10.0 uM
[15] = biological target: T3, Sodium-dependent dopamine transporter; settings: Compound concentration 10.0 uM
[16] = biological target: Alpha-2C adrenergic receptor (Homo sapiens) (UniProt P18825); settings: Compound concentration 10.0 uM
[17] = biological target: T4, Alpha-2A adrenergic receptor (Homo sapiens) (UniProt P08913); settings: Compound concentration 10.0 uM
T4 sequence (whole entry): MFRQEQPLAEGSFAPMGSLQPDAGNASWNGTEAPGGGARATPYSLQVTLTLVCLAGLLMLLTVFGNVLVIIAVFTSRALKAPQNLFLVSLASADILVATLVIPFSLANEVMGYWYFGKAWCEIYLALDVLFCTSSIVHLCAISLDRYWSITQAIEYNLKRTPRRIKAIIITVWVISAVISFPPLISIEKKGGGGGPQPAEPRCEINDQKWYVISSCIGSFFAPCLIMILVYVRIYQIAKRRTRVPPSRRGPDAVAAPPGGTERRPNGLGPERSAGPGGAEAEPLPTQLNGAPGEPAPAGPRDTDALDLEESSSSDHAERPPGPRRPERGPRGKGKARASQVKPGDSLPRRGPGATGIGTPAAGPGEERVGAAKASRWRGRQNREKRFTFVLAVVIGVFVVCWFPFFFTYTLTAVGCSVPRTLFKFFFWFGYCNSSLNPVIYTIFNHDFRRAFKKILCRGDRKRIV

[18] = biological target: Beta-1 adrenergic receptor (Homo sapiens) (UniProt P08588); settings: Compound concentration 10.0 uM
Chain of Beta-1 adrenergic receptor (Homo sapiens) (P08588 whole entry, looked up): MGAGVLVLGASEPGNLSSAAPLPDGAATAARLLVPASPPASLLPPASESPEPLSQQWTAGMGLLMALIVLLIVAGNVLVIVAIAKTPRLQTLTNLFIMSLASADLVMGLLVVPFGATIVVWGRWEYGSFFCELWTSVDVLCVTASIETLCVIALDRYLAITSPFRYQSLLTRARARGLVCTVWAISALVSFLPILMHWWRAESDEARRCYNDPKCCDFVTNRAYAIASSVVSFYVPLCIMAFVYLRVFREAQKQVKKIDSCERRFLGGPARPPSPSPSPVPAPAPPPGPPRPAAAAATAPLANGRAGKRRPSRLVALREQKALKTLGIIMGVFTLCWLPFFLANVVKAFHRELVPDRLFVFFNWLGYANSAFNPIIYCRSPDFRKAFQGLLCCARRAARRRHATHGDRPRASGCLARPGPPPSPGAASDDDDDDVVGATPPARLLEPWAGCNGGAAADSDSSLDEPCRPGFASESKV

[19] = biological target: T5, Sigma intracellular receptor 2 (Homo sapiens, UniProt Q5BJF2); settings: Compound concentration 10.0 uM
T5 sequence (Q5BJF2 whole entry): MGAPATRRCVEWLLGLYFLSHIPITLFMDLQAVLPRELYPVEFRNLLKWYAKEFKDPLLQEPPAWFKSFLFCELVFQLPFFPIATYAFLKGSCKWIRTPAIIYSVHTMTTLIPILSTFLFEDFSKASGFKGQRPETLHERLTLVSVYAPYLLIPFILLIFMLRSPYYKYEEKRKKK

[20] = biological target: Delta-type opioid receptor (Homo sapiens) (UniProt P41143); settings: Compound concentration 10.0 uM
[21] = biological target: Beta-3 adrenergic receptor (Homo sapiens) (UniProt P13945); settings: Compound concentration 10.0 uM
[22] = biological target: Sodium-dependent serotonin transporter (Homo sapiens) (UniProt P31645); settings: Compound concentration 10.0 uM
[23] = biological target: Alpha-2B adrenergic receptor (Homo sapiens) (UniProt P18089); settings: Compound concentration 10.0 uM
[24] = biological target: 5-hydroxytryptamine receptor 2B (Homo sapiens) (UniProt P41595); settings: Compound concentration 10.0 uM
[25] = biological target: D(4) dopamine receptor (Homo sapiens) (UniProt P21917); settings: Compound concentration 10.0 uM
Chain of D(4) dopamine receptor (Homo sapiens) (P21917 whole entry): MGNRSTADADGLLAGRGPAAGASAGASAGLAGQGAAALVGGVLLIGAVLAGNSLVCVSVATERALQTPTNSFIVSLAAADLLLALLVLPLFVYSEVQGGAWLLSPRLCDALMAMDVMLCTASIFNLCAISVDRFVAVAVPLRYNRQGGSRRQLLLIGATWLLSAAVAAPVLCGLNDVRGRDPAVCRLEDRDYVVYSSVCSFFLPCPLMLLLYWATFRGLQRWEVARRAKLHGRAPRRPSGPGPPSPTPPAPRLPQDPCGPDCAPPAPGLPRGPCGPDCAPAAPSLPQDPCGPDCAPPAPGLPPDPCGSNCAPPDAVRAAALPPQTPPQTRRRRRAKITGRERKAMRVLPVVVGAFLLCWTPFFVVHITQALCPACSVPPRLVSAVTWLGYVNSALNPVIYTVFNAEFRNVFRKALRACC

[26] = biological target: 5-hydroxytryptamine receptor 2A (Homo sapiens) (UniProt P28223); settings: Compound concentration 10.0 uM
[27] = biological target: Alpha-1A adrenergic receptor (Homo sapiens) (UniProt P35348); settings: Compound concentration 10.0 uM
[28] = biological target: Histamine H1 receptor (Homo sapiens) (UniProt P35367); settings: Compound concentration 10.0 uM
[29] = biological target: T6, Sigma non-opioid intracellular receptor 1 (Homo sapiens, UniProt Q99720); experiment: GPCRScan assay: inhibition of Sigma 1; parameters: radioligand conc. used [nm] 4.0 – 5.0, parental cells HEKT
T6 sequence (Q99720 whole entry): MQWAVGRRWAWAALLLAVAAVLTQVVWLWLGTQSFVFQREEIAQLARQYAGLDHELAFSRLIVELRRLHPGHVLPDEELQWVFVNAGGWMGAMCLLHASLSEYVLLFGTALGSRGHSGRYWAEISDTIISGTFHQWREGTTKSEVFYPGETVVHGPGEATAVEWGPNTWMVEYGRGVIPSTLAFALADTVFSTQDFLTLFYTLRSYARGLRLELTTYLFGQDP

[30] = biological target: T7, Sodium-dependent noradrenaline transporter (Homo sapiens, UniProt P23975); settings: Compound concentration 10.0 uM
T7 sequence (P23975 whole entry): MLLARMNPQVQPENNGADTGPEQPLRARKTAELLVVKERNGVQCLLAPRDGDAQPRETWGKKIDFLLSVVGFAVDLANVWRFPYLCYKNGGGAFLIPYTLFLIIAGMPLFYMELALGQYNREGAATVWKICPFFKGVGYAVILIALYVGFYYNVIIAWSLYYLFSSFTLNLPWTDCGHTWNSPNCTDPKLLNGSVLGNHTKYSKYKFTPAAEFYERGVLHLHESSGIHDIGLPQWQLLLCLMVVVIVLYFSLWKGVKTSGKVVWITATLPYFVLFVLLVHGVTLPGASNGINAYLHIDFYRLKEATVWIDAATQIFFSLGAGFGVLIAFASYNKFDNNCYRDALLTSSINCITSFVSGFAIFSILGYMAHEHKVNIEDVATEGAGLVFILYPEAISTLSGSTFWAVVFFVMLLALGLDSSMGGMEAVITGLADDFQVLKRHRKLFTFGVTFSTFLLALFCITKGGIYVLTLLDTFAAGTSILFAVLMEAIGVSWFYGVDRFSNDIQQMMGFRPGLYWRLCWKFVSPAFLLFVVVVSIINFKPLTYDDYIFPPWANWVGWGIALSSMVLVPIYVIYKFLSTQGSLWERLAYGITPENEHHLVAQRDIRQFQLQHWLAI

[31] = biological target: T1, 5-hydroxytryptamine receptor 1D; settings: Compound concentration 10.0 uM
[32] = biological target: Mu-type opioid receptor (Homo sapiens) (UniProt P35372); settings: Compound concentration 10.0 uM
[33] = biological target: D(1B) dopamine receptor (Homo sapiens) (UniProt P21918); settings: Compound concentration 10.0 uM
Rattus norvegicus = organism: Rattus norvegicus; settings: Compound concentration 10.0 uM
[34] = biological target: D(2) dopamine receptor (Homo sapiens) (UniProt P14416); settings: Compound concentration 10.0 uM
[35] = biological target: Histamine H4 receptor (Homo sapiens) (UniProt Q9H3N8); settings: Compound concentration 10.0 uM
[36] = biological target: 5-hydroxytryptamine receptor 6 (Homo sapiens, UniProt P50406); experiment: GPCRScan assay: inhibition of 5-HT6; parameters: radioligand conc. used [nm] 2.0 – 4.0, parental cells stable HEK
Chain of 5-hydroxytryptamine receptor 6 (P50406 whole entry): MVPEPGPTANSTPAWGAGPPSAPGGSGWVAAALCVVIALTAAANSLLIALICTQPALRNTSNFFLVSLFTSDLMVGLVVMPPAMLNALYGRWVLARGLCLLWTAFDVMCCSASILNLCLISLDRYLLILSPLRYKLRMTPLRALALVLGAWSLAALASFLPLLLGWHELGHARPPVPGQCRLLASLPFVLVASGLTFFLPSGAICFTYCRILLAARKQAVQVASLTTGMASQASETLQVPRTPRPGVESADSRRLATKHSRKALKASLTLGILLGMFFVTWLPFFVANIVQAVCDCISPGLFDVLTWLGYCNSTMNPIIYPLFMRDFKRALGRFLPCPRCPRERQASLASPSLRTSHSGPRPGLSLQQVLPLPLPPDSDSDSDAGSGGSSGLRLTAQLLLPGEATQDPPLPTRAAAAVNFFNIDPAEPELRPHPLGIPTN

[37] = biological target: Muscarinic acetylcholine receptor M4 (Homo sapiens) (UniProt P08173); settings: Compound concentration 10.0 uM
[38] = biological target: T5, Sigma intracellular receptor 2; experiment: GPCRScan assay: inhibition of Sigma 2; parameters: radioligand conc. used [nm] 5.0, parental cells HEKT
[39] = biological target: T6, Sigma non-opioid intracellular receptor 1; settings: Compound concentration 10.0 uM
[40] = biological target: T7, Sodium-dependent noradrenaline transporter; experiment: GPCRScan assay: inhibition of NET; parameters: radioligand conc. used [nm] 1.3 – 5.0, parental cells stable HEK
[41] = biological target: Kappa-type opioid receptor (Homo sapiens) (UniProt P41145); settings: Compound concentration 10.0 uM
[42] = biological target: T2, Mitotic checkpoint serine/threonine-protein kinase BUB1; experiment: BUB1 biochemical assay (low ATP)

T1 sequence (P28221 whole entry): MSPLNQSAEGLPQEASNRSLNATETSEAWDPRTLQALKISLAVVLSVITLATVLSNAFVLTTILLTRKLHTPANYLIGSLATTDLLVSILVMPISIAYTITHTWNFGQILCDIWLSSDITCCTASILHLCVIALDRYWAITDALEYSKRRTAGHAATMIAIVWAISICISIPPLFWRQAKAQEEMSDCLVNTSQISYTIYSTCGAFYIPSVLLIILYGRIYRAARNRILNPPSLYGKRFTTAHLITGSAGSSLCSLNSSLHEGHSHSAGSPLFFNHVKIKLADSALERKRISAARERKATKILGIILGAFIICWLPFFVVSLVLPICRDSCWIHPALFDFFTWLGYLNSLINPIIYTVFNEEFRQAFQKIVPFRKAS

inhibition [1]: 28.7%
Ki [2]: 8970 nM
IC50 [3]: > 20000 nM (not active)
inhibition [4]: -3.97%
inhibition [5]: 33.8%
inhibition [6]: 20%
inhibition [7]: -3.39%
inhibition [8]: -3.71%
inhibition [9]: -4.46%
inhibition [10]: 12.3%
Ki ([11]; read-out: Ki): 1630 nM
Ki ([11]; read-out: pKi (converted)): 1620 nM
inhibition [12]: 3.77%
inhibition [13]: 12.9%
inhibition [14]: 41.3%
inhibition [15]: 82.8%
inhibition [16]: 12.9%
inhibition [17]: 28.9%
inhibition [18]: 1.17%
inhibition [19]: 69.2%
inhibition [20]: -9.55%
inhibition [21]: 33.6%
inhibition [22]: 10.9%
inhibition [23]: 27.6%
inhibition [24]: -3.83%
inhibition [25]: 24.9%
inhibition [26]: 6.5%
inhibition [27]: -6.1%
inhibition [28]: 20.3%
Ki [29]: 1340 nM
inhibition [30]: 58.7%
inhibition [31]: 55.1%
inhibition [32]: -9.7%
inhibition [33]: 26.8%
inhibition (Rattus norvegicus): 13.9%
inhibition [34]: 21.8%
inhibition [35]: 27.8%
Ki [36]: > 10000 nM
pKi [36]: < 5
inhibition [37]: 9.26%
Ki [38]: 655 nM
inhibition [39]: 52.2%
Ki [40]: 2740 nM
inhibition [41]: 17.5%
IC50 [42]: 1700 nM (not active)
SMILES: COc1ccccc1Nc1nc(-c2nn(Cc3c(F)cc(OCCCO)cc3F)c3ccccc23)ncc1OC
